Read-outs that look alike come from different tables or passages of the source.
System: HCV pseudoparticles (genotype 1a HCV E1 and E2 envelope, H77C isolate)
Experiment: microbe, parasite or virus in culture
Type: cell-based
Details: Hepatitis C virus
[1] = Huh-7, 48 h, read-out: Activity (EC50 class), HCV pseudoparticles, Huh7 cells, luciferase 2 days after infection, average of duplicates
[2] = Huh-7, read-out: Activity (EC50 class), HCV pseudoparticles (genotype 1a, H77C) in Huh7 cells, EC50 expressed as class A/B
[3] = Huh-7, 48 h, HCV pseudoparticle infection of Huh7 cells, luciferase 2 days after infection, average of duplicates
[4] = Huh-7, 48 h, read-out: Activity (EC50 class), HCV pseudoparticle infection of Huh7 cells, luciferase 2 days after infection, EC50 expressed as class A/B
[5] = Huh-7, 48 h, HCV pseudoparticles (genotype 1a, H77C) in Huh7 cells, average of duplicate, luciferase 2 days after infection
[6] = Huh-7, 48 h, HCV pseudoparticles, Huh7 cells, luciferase 2 days after infection, average of duplicates

Row | SMILES | EC50 [2] [nM] | EC50 [4] [nM] | other results
1 | O=C(NC[C@H](NC(=O)c1ccc(Nc2nc(NC3(c4ccc(Cl)cc4)CC3)nc(OCC(F)(F)F)n2)cc1)C(=O)O)C(=O)Nc1cccc(-c2ccc(Cl)cc2)c1 [Compound 3775] |  |  | EC50 [1]: 0.01 to 10 nM
2 | CN(CCCN(C)C(=O)c1ccc(Nc2nc(NC3(c4ccc(Cl)cc4)CC3)nc(OCC(F)(F)F)n2)cc1)C(=O)C(=O)N1CCCCC1 [Compound 3432] | 10 to 1000 |  | 
3 | Cc1ccc(NC(=O)C(=O)NCC(C)(C)CNC(=O)c2ccc(Nc3nc(NC4(c5ccc(Cl)cc5)CC4)nc(OCC(F)(F)F)n3)cc2)c(C(F)(F)F)c1 [Compound 3455] | 0.01 to 10 |  | 
4 | COc1ccc(CNC(=O)C(=O)NC[C@H](NC(=O)c2ccc(Nc3nc(NC4(c5ccc(Cl)cc5)CC4)nc(OCC(F)(F)F)n3)cc2)C(=O)O)cc1 [Compound 1167] |  | 0.01 to 10 | EC50 [3]: 1.32 nM
5 | O=C(Nc1cc(F)cc(F)c1)C(=O)N[C@H](CCNC(=O)c1ccc(Nc2nc(NC3(c4ccc(Cl)cc4)CC3)nc(OCC(F)(F)F)n2)cc1)C(=O)O [Compound 3493] | 0.01 to 10 |  | 
6 | CCC1CCC(NC(=O)C(=O)NCC[C@H](NC(=O)c2ccc(Nc3nc(NC4(c5ccc(Cl)cc5)CC4)nc(OCC(F)(F)F)n3)cc2)C(=O)OC)CC1 (some centres unmarked) [Compound 1103] |  | 0.01 to 10 | 
7 | COC(=O)C(NC(=O)c1ccc(Nc2nc(NC3(c4ccc(Cl)cc4)CC3)nc(OCC(F)(F)F)n2)cc1)C1CCCN(C(=O)C(N)=O)C1 (centres unmarked) [Compound 1017, methyl 2-(1-(2-amino-2-oxoacetyl)piperidin-3-yl)-2-(4-(4-(1-(4-chlorophenyl)cyclopropylamino)-6-(2,2,2-trifluoroethoxy)-1,3,5-triazin-2-ylamino)benzamido)acetate] |  | 0.01 to 10 | 
8 | Cc1ccc(NC(=O)C(=O)NCC(C)(C)CNC(=O)c2ccc(Nc3nc(NC4(c5ccc(Cl)cc5)CC4)nc(OCC(F)(F)F)n3)cc2)c(C#N)c1 [Compound 3454] | 0.01 to 10 |  | 
9 | CN(CCCNC(=O)c1ccc(Nc2nc(NC3(c4ccc(Cl)cc4)CC3)nc(OCC(F)(F)F)n2)cc1)C(=O)C(=O)NCc1ccc(F)cc1 [Compound 3444] | 0.01 to 10 |  | 
10 | CC(C)(CNC(=O)C(=O)Nc1ccc(-n2cncn2)cc1)CNC(=O)c1ccc(Nc2nc(NC3(c4ccc(Cl)cc4)CC3)nc(OCC(F)(F)F)n2)cc1 [Compound 3053] | 0.01 to 10 |  | 
11 | CC(C)(CNC(=O)C(=O)NC1CCCCC1)CNC(=O)c1ccc(Nc2nc(NC3(c4ccc(Cl)cc4)CC3)nc(OCC(F)(F)F)n2)cc1 [Compound 1544] |  | 0.01 to 10 | EC50 [3]: 0.08 nM
12 | O=C(NC[C@H](NC(=O)c1ccc(Nc2nc(NC3(c4ccc(Cl)cc4)CC3)nc(OCC(F)(F)F)n2)cc1)C(=O)O)C(=O)Nc1ccc(-n2ccnc2)cc1 [Compound 3268] | 0.01 to 10 |  | 
13 | CC(C)(CNC(=O)C(=O)Nc1ccc2c(c1)oc1ccccc12)CNC(=O)c1ccc(Nc2nc(NC3(c4ccc(Cl)cc4)CC3)nc(OCC(F)(F)F)n2)cc1 [Compound 1577] |  | 0.01 to 10 | 
14 | O=C(NC[C@H](NC(=O)c1ccc(Nc2nc(NC3(c4ccc(Cl)cc4)CC3)nc(OCC(F)(F)F)n2)cc1)C(=O)O)C(=O)Nn1cnnc1 [Compound 1350] |  | 10 to 1000 | 
15 | COC(=O)[C@H](CNC(=O)C(=O)Nc1cccc(CCc2ccccn2)c1)NC(=O)c1ccc(Nc2nc(NC3(c4ccc(Cl)cc4)CC3)nc(OCC(F)(F)F)n2)cc1 [Compound 3713] |  |  | EC50 [1]: 0.01 to 10 nM
16 | COC(=O)[C@H](CCNC(=O)C(=O)Nc1cccc(-c2ccccc2)c1)NC(=O)c1ccc(Nc2nc(NC3(c4ccc(Cl)cc4)CC3)nc(OCC(F)(F)F)n2)cc1 [Compound 1522] |  | 0.01 to 10 | EC50 [3]: 0.1 nM
17 | COc1ccc(NC(=O)C(=O)NCC(C)(C)CNC(=O)c2ccc(Nc3nc(NC4(c5ccc(Cl)cc5)CC4)nc(OCC(F)(F)F)n3)cc2)c(C(F)(F)F)c1 [Compound 3456] | 0.01 to 10 |  | 
18 | CC(C)CNC(=O)C(=O)NC(C)(C)CNC(=O)c1ccc(Nc2nc(NC3(c4ccc(Cl)cc4)CC3)nc(OCC(F)(F)F)n2)cc1 [Compound 3442] | 0.01 to 10 |  | 
19 | Cc1ccc(NC(=O)C(=O)NCC(C)(C)CNC(=O)c2ccc(Nc3nc(NC4(c5ccc(Cl)cc5)CC4)nc(OCC(F)(F)F)n3)cc2)cc1C [Compound 3799] |  |  | EC50 [1]: 0.01 to 10 nM
20 | COC(=O)[C@H](CNC(=O)C(=O)NC1CCCC(O)C1)NC(=O)c1ccc(Nc2nc(NC3(c4ccc(Cl)cc4)CC3)nc(OCC(F)(F)F)n2)cc1 (some centres unmarked) [Compound 1056] |  | 0.01 to 10 | 
21 | COC(=O)[C@@H](CCNC(=O)C(=O)Nc1ccc(OCCC2C(=O)c3ccccc3C2=O)nc1)NC(=O)c1ccc(Nc2nc(NC3(c4ccc(Cl)cc4)CC3)nc(OCC(F)(F)F)n2)cc1 [Compound 3569] | 0.01 to 10 |  | 
22 | O=C(NCC[C@H](NC(=O)c1ccc(Nc2nc(NC3(c4ccc(Cl)cc4)CC3)nc(OCC(F)(F)F)n2)cc1)C(=O)O)C(=O)Nc1ccc(OCCN2CCCCC2)nc1 [Compound 3661] |  |  | EC50 [1]: 0.01 to 10 nM

Row | SMILES | EC50 [2] [nM] | EC50 [4] [nM] | other results
23 | COC(=O)[C@H](CCNC(=O)C(=O)N[C@H]1C[C@H]2C[C@@H]([C@H]1C)C2(C)C)NC(=O)c1ccc(Nc2nc(NC3(c4ccc(Cl)cc4)CC3)nc(OCC(F)(F)F)n2)cc1 [Compound 1074] |  | 0.01 to 10 | 
24 | Cn1ccnc1NC(=O)C(=O)NCC(C)(C)CNC(=O)c1ccc(Nc2nc(NC3(c4ccc(Cl)cc4)CC3)nc(OCC(F)(F)F)n2)cc1 [Compound 3379] | 0.01 to 10 |  | EC50 [5]: 0.14 nM
25 | CN(CCCN(C)C(=O)c1ccc(Nc2nc(NC3(c4ccc(Cl)cc4)CC3)nc(OCC(F)(F)F)n2)cc1)C(=O)C(=O)NCc1ccc(F)cc1 [Compound 3413] | 10 to 1000 |  | 
26 | CN(C(=O)C(=O)NCC(C)(C)CNC(=O)c1ccc(Nc2nc(NC3(c4ccc(Cl)cc4)CC3)nc(OCC(F)(F)F)n2)cc1)c1ccc(F)cc1 [Compound 1599] |  | 0.01 to 10 | 
27 | CC(C)(CNC(=O)C(=O)Nc1ccccc1C(=O)c1ccccc1)CNC(=O)c1ccc(Nc2nc(NC3(c4ccc(Cl)cc4)CC3)nc(OCC(F)(F)F)n2)cc1 [Compound 3141] | 0.01 to 10 |  | EC50 [5]: 0.11 nM
28 | CCc1cccc(NC(=O)C(=O)NC[C@H](NC(=O)c2ccc(Nc3nc(NC4(c5ccc(Cl)cc5)CC4)nc(OCC(F)(F)F)n3)cc2)C(=O)OC)c1 [Compound 3688] |  |  | EC50 [6]: 0.97 nM; EC50 [1]: 0.01 to 10 nM
29 | CN(CCCNC(=O)c1ccc(Nc2nc(NC3(c4ccc(Cl)cc4)CC3)nc(OCC(F)(F)F)n2)cc1)C(=O)C(=O)Nc1ccc(F)cc1F [Compound 3449] | 0.01 to 10 |  | 
30 | Cc1ccc(NC(=O)C(=O)NCC(C)(C)CNC(=O)c2ccc(Nc3nc(NC4(c5ccc(Cl)cc5)CC4)nc(OCc4ccccc4F)n3)cc2)cc1 [Compound 3847] |  |  | EC50 [6]: 0.027 nM; EC50 [1]: 0.01 to 10 nM
31 | COC(=O)[C@H](CNC(=O)C(=O)Nc1cccc(-c2c[nH]cn2)c1)NC(=O)c1ccc(Nc2nc(NC3(c4ccc(Cl)cc4)CC3)nc(OCC(F)(F)F)n2)cc1 [Compound 3732] |  |  | EC50 [1]: 0.01 to 10 nM
32 | O=C(NCC[C@H](NC(=O)c1ccc(Nc2nc(NC3(c4ccc(Cl)cc4)CC3)nc(OCC(F)(F)F)n2)cc1)C(=O)O)C(=O)Nc1cccc(-c2cccnc2)c1 [Compound 3652] |  |  | EC50 [6]: 0.45 nM; EC50 [1]: 0.01 to 10 nM
33 | COC(=O)[C@H](CCNC(=O)C(=O)Nc1ccc(-n2ccnc2C)cc1)NC(=O)c1ccc(Nc2nc(NC3(c4ccc(Cl)cc4)CC3)nc(OCC(F)(F)F)n2)cc1 [Compound 3320] | 0.01 to 10 |  | EC50 [5]: 8.8 nM
34 | COC(=O)[C@H](CNC(=O)C(=O)NCC1CCCc2ccccc21)NC(=O)c1ccc(Nc2nc(NC3(c4ccc(Cl)cc4)CC3)nc(OCC(F)(F)F)n2)cc1 (some centres unmarked) [Compound 1299] |  | 0.01 to 10 | 
35 | COC(=O)[C@@H](CCNC(=O)C(=O)NCC1(COc2ccccc2)CC1)NC(=O)c1ccc(Nc2nc(NC3(c4ccc(Cl)cc4)CC3)nc(OCC(F)(F)F)n2)cc1 [Compound 1387] |  | 0.01 to 10 | 
36 | CC(C)(CNC(=O)C(N)=O)CNC(=O)c1ccc(Nc2nc(NC3(c4ccccc4)CC3)nc(OCC(F)(F)F)n2)cc1 [Compound 3244] | 0.01 to 10 |  | EC50 [5]: 0.07 nM
37 | COC(=O)[C@H](CCNC(=O)C(=O)Nc1ccc(CNC(N)=O)cc1)NC(=O)c1ccc(Nc2nc(NC3(c4ccc(Cl)cc4)CC3)nc(OCC(F)(F)F)n2)cc1 [Compound 3314] | 0.01 to 10 |  | 
38 | O=C(NC[C@H](NC(=O)c1ccc(Nc2nc(NC3(c4ccc(Cl)cc4)CC3)nc(OCC(F)(F)F)n2)cc1)C(=O)O)C(=O)Nc1ccc(Oc2cccnc2)nc1 [Compound 3755] |  |  | EC50 [1]: 0.01 to 10 nM
39 | CC(C)(CNC(=O)C(=O)Nc1ccc2cccnc2c1)CNC(=O)c1ccc(Nc2nc(NC3(c4ccc(Cl)cc4)CC3)nc(OCC(F)(F)F)n2)cc1 [Compound 3034] | 0.01 to 10 |  | EC50 [5]: 0.04 nM
40 | CC(C)(CNC(=O)C(=O)Nn1cnnc1)CNC(=O)c1ccc(Nc2nc(NC3(c4ccc(Cl)cc4)CC3)nc(OCC(F)(F)F)n2)cc1 [Compound 3253] | 0.01 to 10 |  | 
41 | COC(=O)/C(CCNC(=O)C(=O)NC1CCCC(S(=O)(=O)c2ccccc2)C1)=N\C(=O)c1ccc(Nc2nc(NC3(c4ccc(Cl)cc4)CC3)nc(OCC(F)(F)F)n2)cc1 (centres unmarked) [Compound 3584] | 10 to 1000 |  | 
42 | CC(C)(C)C1CCC(NC(=O)C(=O)NC[C@H](NC(=O)c2ccc(Nc3nc(NC4(c5ccc(Cl)cc5)CC4)nc(OCC(F)(F)F)n3)cc2)C(=O)O)CC1 (some centres unmarked) [Compound 1090] |  | 0.01 to 10 | 
43 | CC(C)(CNC(=O)C(=O)Nc1ccc(-c2cscn2)cc1)CNC(=O)c1ccc(Nc2nc(NC3(c4ccc(Cl)cc4)CC3)nc(OCC(F)(F)F)n2)cc1 [Compound 1595] |  | 0.01 to 10 | 
44 | COC(=O)[C@H](CNC(=O)C(=O)N(C)C)NC(=O)c1ccc(Nc2nc(NC3(c4ccc(Cl)cc4)CC3)nc(OCC(F)(F)F)n2)cc1 [Compound 1004, (S)-methyl 2-(4-(4-(1-(4-chlorophenyl)cyclopropylamino)-6-(2,2,2-trifluoroethoxy)-1,3,5-triazin-2-ylamino)benzamido)-3-(2-(dimethylamino)-2-oxoacetamido)propanoate] |  | 0.01 to 10 | EC50 [3]: 4.74 nM

— US8916702B2 (priority 2012, dated 2014)
